Among the data in ChEMBL document CHEMBL4396975, “Sodium Channel Modulators and Their Method of Use” (ACS Med Chem Lett, 2019) are IC50 values, retold here.

Sequence of Sodium channel protein type 9 subunit alpha (Q15858 whole entry): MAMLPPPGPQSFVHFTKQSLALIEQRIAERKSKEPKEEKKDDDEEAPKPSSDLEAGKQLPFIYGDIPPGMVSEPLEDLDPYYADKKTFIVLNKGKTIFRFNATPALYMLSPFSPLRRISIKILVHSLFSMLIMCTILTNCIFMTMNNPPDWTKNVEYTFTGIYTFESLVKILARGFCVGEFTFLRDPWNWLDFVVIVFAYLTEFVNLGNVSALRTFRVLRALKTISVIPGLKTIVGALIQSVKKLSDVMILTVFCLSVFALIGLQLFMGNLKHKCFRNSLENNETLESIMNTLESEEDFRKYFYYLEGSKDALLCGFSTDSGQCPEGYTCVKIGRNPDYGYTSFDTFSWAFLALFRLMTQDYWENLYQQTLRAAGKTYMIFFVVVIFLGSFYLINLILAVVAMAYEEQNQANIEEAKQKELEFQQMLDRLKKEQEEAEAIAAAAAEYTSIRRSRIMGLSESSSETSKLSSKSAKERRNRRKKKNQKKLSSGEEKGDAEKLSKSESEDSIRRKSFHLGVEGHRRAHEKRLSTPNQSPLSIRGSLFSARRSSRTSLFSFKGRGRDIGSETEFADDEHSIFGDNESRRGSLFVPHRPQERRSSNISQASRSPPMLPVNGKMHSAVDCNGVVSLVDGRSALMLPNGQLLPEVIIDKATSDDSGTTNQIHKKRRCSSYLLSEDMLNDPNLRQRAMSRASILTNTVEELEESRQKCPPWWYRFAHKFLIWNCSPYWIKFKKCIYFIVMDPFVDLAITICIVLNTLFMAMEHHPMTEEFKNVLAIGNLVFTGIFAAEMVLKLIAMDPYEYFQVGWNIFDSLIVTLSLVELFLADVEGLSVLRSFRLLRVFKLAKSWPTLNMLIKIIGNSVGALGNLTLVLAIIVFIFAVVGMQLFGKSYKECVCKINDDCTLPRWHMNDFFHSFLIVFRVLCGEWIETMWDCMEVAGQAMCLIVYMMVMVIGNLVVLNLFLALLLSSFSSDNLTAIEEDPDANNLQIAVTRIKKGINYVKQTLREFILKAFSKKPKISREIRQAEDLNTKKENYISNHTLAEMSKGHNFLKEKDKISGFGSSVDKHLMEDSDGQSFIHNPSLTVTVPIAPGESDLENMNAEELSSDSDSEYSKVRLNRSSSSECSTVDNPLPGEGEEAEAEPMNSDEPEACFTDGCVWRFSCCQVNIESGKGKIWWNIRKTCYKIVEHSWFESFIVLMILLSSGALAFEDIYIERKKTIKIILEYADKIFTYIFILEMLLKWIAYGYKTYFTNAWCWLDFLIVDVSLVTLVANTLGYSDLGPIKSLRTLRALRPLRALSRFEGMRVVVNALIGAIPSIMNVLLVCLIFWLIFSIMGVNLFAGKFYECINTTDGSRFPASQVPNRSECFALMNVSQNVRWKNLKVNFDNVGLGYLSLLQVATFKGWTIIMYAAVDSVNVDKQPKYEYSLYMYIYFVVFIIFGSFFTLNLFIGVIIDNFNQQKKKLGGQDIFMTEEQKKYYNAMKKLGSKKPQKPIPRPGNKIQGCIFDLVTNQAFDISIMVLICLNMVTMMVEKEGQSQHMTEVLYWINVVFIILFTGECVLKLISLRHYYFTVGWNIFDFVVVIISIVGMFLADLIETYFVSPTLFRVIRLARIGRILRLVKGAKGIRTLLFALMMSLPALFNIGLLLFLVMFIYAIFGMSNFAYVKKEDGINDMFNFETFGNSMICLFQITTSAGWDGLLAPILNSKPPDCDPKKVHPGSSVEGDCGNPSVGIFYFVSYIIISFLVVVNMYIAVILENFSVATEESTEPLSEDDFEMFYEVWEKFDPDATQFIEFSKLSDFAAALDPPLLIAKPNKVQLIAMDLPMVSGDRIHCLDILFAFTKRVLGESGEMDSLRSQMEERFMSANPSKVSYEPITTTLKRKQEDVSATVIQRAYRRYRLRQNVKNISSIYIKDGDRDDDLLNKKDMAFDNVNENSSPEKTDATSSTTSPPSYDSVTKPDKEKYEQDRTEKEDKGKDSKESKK

This test concerns the target Sodium channel protein type 9 subunit alpha (Homo sapiens, UniProt Q15858). The experiment in a line: Inhibition of human Nav1.7 expressed in HEK293 cells by automated electrophysiological patch clamp assay. The format is cell-based. On the technique in general: The patch-clamp technique gives a direct electrical read-out from membranes.
For orientation: IC50 means the concentration that gives 50% inhibition. Low values mean inhibition by little substance, high ones a need for much substance. In the case of `CN1[C@@H](c2ccc(Oc3nnnn3-c3ccccc3C(F)(F)F)cc2)CC[C@H]1C(N)=O`, the IC50 amounted to 1800 nM. The figure for `Cc1cccc(C)c1-n1nnnc1Oc1ccc([C@H]2CC[C@@H](C(N)=O)N2)cc1` is 890 nM.

As for `NC(=O)[C@@H]1CC[C@H](c2ccc(Oc3nnnn3-c3cc(Cl)ccc3OC(F)(F)F)cc2)N1`, half-maximal inhibition (IC50) was put at 680 nM. Molecule `CN(C)C(=O)[C@@H]1CC[C@H](c2ccc(Oc3nnnn3-c3ccccc3OC(F)(F)F)cc2)N1` showed an IC50 of 1800 nM.

`Cc1cc(C(F)(F)F)ccc1-n1nnnc1Oc1ccc([C@H]2CC[C@@H](C(N)=O)N2)cc1` registered an IC50 of 1200 nM. This IC50 lies about 1.5-fold lower than the previous one.

`Cc1ccc(Cl)cc1-n1nnnc1Oc1ccc([C@H]2CC[C@@H](C(N)=O)N2)cc1` had an IC50 of 720 nM. Turning to `NC(=O)[C@@H]1CC[C@H](c2ccc(Oc3nnnn3-c3ccccc3OC(F)(F)F)cc2)N1`, the IC50 stood at 1100 nM. For the molecule `COc1ccc(C)c(-n2nnnc2Oc2ccc([C@H]3CC[C@@H](C(N)=O)N3)cc2)c1`, the midpoint of inhibition, the IC50, lay at 1100 nM.

Turning to `CC(C)(C)c1ccccc1-n1nnnc1Oc1ccc([C@H]2CC[C@@H](C(N)=O)N2)cc1`, 1500 nM corresponded to half-maximal inhibition (IC50). The figure for `NC(=O)[C@@H]1CC[C@H](c2ccc(Oc3nnnn3-c3cc(F)ccc3OC(F)(F)F)cc2)N1` is 570 nM.
